From US20090082337A1, “Compositions Comprising Quinolone and Methods for Treating or Controlling Infections” (priority 2007, published 2009)
≈ marks a conversion by molar mass, not a printed value.

Test system: Ofloxacin-resistant Enterobacteriaceae
Test: organism not typed
Assay type: cell-based

| Compound | MIC90 [µg/mL] |
| --- | --- |
| N[C@@H]1CCCCN(c2c(F)cc3c(=O)c(C(=O)O)cn(C4CC4)c3c2Cl)C1 [Compound Having Formula IV] | 16 |
| CC1COc2c(N3CCN(C)CC3)c(F)cc3c(=O)c(C(=O)O)cn1c23 (stereo not drawn) [Ofloxacin, ofloxacin] | 64 (≈ 177 µM) |
| CCn1cc(C(=O)O)c(=O)c2cc(F)c(N3CCNCC3)cc21 [Norfloxacin] | 128 (≈ 401 µM) |
